Results: PubChem BioAssay (NCI)
“And” between values parts separate entries of the source, which are not always exact repeats. Equal values may be shown once.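 These data come from cells grown in 96-well plates and exposed to compound for 48 hours at five concentrations. At the GI50, growth is halved. TGI denotes the concentration required for complete inhibition of growth.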

How the values were obtained:
Experiment in all cases: inhibition of tumour cell growth, NCI panel, 48 h
HCT-15 colon = test system: HCT-15 colon
UACC-257 melanoma = test system: UACC-257 melanoma
BT-549 breast = test system: BT-549 breast
MCF7 breast = test system: MCF7 breast
K-562 leukemia = test system: K-562 leukemia
CCRF-CEM leukemia = test system: CCRF-CEM leukemia
SF-268 CNS = test system: SF-268 CNS
OVCAR-3 ovarian = test system: OVCAR-3 ovarian
SW-620 colon = test system: SW-620 colon
COLO 205 colon = test system: COLO 205 colon
KM12 colon = test system: KM12 colon
T-47D breast = test system: T-47D breast
HOP-62 NSCLC = test system: HOP-62 NSCLC
OVCAR-5 ovarian = test system: OVCAR-5 ovarian
HS 578T breast = test system: HS 578T breast
OVCAR-4 ovarian = test system: OVCAR-4 ovarian

SMILES	TGI (HCT-15 colon)	TGI (UACC-257 melanoma)	TGI (BT-549 breast)	TGI (MCF7 breast)	TGI (K-562 leukemia) [µM]	TGI (CCRF-CEM leukemia)	TGI (SF-268 CNS)	TGI (OVCAR-3 ovarian)	TGI (SW-620 colon)	TGI (COLO 205 colon)	TGI (KM12 colon)	TGI (T-47D breast)	TGI (HOP-62 NSCLC)	TGI (OVCAR-5 ovarian)	TGI (HS 578T breast)	TGI (OVCAR-4 ovarian)	GI50 (COLO 205 colon)	GI50 (KM12 colon)
CC(C)(C)OC(=O)N1CCC23CCCC2C(=O)CC=C13 (centres undefined)	> 100 µM	71.9 µM	> 100 µM	> 100 µM	> 100	> 100 µM	> 100 µM	> 100 µM	> 100 µM	> 100 µM	> 100 µM	> 100 µM	> 100 µM	> 100 µM	> 100 µM	> 100 µM	–	–
Cn1c(=O)n(CC(Br)CBr)c(=O)n(CC(Br)CBr)c1=O (centres undefined)	> 100 µM	> 100 µM	> 100 µM	> 100 µM	> 100	66.9 µM	> 100 µM	> 100 µM	> 100 µM	43.4 µM	> 100 µM	> 100 µM	> 100 µM	> 100 µM	> 100 µM	> 100 µM	–	–
CC(Cc1ccc(O)c(O)c1)C(C)Cc1ccc(O)c(O)c1 (centres undefined)	> 60.8 µM	37.9 µM	26.8 µM	41.8 µM	> 62.7	19.3 µM	41.6 µM	27.4 µM	49.9 µM	35.9 µM	33.5 µM	41.2 µM	34.1 µM	50.7 µM	52.5 µM	29.5 µM	–	–
Nc1c(C(=O)c2ccccc2)[nH]c(NCc2ccccc2)c1C(=S)Nc1ccccc1	> 100 µM	> 100 µM	> 100 µM	> 100 µM	> 100	> 100 µM	> 100 µM	> 100 µM	> 100 µM	> 100 µM	> 100 µM	> 100 µM	> 100 µM	> 100 µM	> 100 µM	> 100 µM	–	–
Cc1ccc(C2=Nc3c(N)nc(N)nc3NC(c3ccccc3)C2)cc1 (centres undefined)	15.9 µM and 12 µM	24.6 µM and 32.4 µM	22 µM and 23.6 µM	22.5 µM and 21.5 µM	> 100	48.5 µM and 96.9 µM	29.9 µM and 31.8 µM	24.8 µM and 24.9 µM	15.2 µM and 16.2 µM	14 µM and 25.3 µM	13.8 µM and 33.7 µM	28.2 µM and 32.6 µM	25.5 µM and 22.3 µM	30.5 µM and 33.5 µM	33.9 µM and 41.1 µM	27.6 µM and 29.9 µM	5.21 µM and 11.4 µM	3.97 µM and 18 µM
CSCCC(NC(c1ccccc1)c1ccccc1)[P+](=O)O (centres undefined)	> 100 µM	> 100 µM	> 100 µM	> 100 µM	> 100	> 100 µM	> 100 µM	> 100 µM	> 100 µM	> 100 µM	> 100 µM	> 100 µM	> 100 µM	> 100 µM	> 100 µM	> 100 µM	–	–
O=C(O)c1ccccc1/C=N\NC1=NCCN1	> 100 µM	> 100 µM	> 100 µM	> 100 µM	> 100	> 100 µM	> 100 µM	> 100 µM	> 100 µM	> 100 µM	> 100 µM	> 100 µM	> 100 µM	> 100 µM	> 100 µM	> 100 µM	–	–
COC(=O)C1=C(C)NC(C)=C([N+](=O)[O-])C1c1cccc(NO)c1 (centres undefined)	9.77 µM	28.1 µM	16.4 µM	27.2 µM	> 27.1	> 22.9 µM	> 100 µM	19.5 µM	16.5 µM	4.74 µM	6.85 µM	> 52.4 µM	> 100 µM	> 100 µM	38.6 µM	40.6 µM	–	–
CO[C@H]1O[C@@H]2CO[C@@H](c3ccccc3)O[C@H]2C[C@]12CCC/C=C\CO2	27.5 µM	> 75 µM	23.9 µM	35.7 µM	35.7	36.5 µM	32.1 µM	24.6 µM	61.1 µM	26.6 µM	> 75 µM	59.6 µM	44.4 µM	> 75 µM	40 µM	> 75 µM	–	–
Cc1cccc2c1C(=O)C(C1OC(=O)c3ccccc31)C2 (centres undefined)	> 100 µM	> 100 µM	> 100 µM	> 100 µM	> 100	> 100 µM	> 100 µM	> 100 µM	> 100 µM	> 100 µM	> 100 µM	> 100 µM	> 100 µM	> 100 µM	> 100 µM	> 100 µM	–	–
CC(=O)OC[C@@]12C[C@H]3C(=O)C(C)(C)C[C@H]3[C@]1(C)[C@@H](OC(C)=O)[C@]1(O)[C@H]([C@@H](OC(=O)c3ccccc3)[C@@H](C)[C@H]1OC(C)=O)[C@H]2OC(C)=O	> 20 µM	> 20 µM	> 20 µM	> 20 µM	> 20	> 20 µM	> 20 µM	> 20 µM	> 20 µM	> 20 µM	> 20 µM	> 20 µM	> 20 µM	> 20 µM	> 20 µM	> 20 µM	–	–
N#Cc1c(NC(=S)NCc2ccccc2)sc2c1CCN(N1CCc3c(sc(NC(=S)NCc4ccccc4)c3C#N)C1)C2	> 100 µM	> 100 µM	> 100 µM	> 100 µM	> 100	> 100 µM	> 100 µM	> 100 µM	> 100 µM	> 100 µM	> 100 µM	> 100 µM	> 100 µM	> 100 µM	> 100 µM	> 100 µM	–	–
CN1C[C@@H]2CCCN2P1Oc1cccc2cccnc12 (some centres undefined)	> 100 µM	> 100 µM	> 100 µM	65.4 µM	> 100	19.3 µM	69.7 µM	90.2 µM	> 100 µM	> 100 µM	> 100 µM	> 100 µM	> 100 µM	> 100 µM	68.1 µM	> 100 µM	–	–
CC(C)[Si]1(C(C)C)OCC2OC(n3ccc(=O)[nH]c3=O)C(O)(CO)C2O[Si](C(C)C)(C(C)C)O1 (centres undefined)	36.2 µM	28.7 µM	30.7 µM	29.2 µM	81.6	30.7 µM	27.8 µM	29.4 µM	33.8 µM	31.7 µM	31 µM	30.2 µM	33.8 µM	29.5 µM	11.4 µM	26.9 µM	–	–
CCOC(=O)c1c(SCCO)n(-c2ccccc2)c(=S)n(-c2ccccc2)c1=O	> 100 µM	> 100 µM	> 100 µM	> 100 µM	> 100	> 100 µM	> 100 µM	> 100 µM	> 100 µM	> 100 µM	> 100 µM	> 100 µM	> 100 µM	> 100 µM	> 100 µM	> 100 µM	–	–
O=C(C1OC1c1ccc([N+](=O)[O-])cc1)C12CC3CC(CC(C3)C1)C2 (centres undefined)	31.5 µM	30.9 µM	40.2 µM	33.1 µM	33.5	7.66 µM	40.8 µM	27 µM	56 µM	35.4 µM	30.1 µM	37.3 µM	56.3 µM	39.9 µM	50.3 µM	38.9 µM	–	–
CC/C(Cl)=N\OC(=O)Nc1ccc(C#N)cc1	21.7 µM	29.8 µM	28.3 µM	29.6 µM	4.28	4.1 µM	33 µM	32.7 µM	11.7 µM	3.3 µM	31.6 µM	30.7 µM	39.2 µM	29.5 µM	57.8 µM	23.6 µM	–	–
